Data from PubChem BioAssay (NCI).
“And” between values parts separate entries of the source, which are not always exact repeats. Equal values may be shown once.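 Assay format: 96-well plates, 48-hour exposure. Abbreviation: GI50, concentration required for 50% inhibition of growth. Definition used: TGI = concentration required for complete inhibition of growth.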

The molecules below were run on DU-145 prostate (assay: inhibition of tumour cell growth, NCI panel, 48 h).
CCN(CC)CCCC(CNc1ccnc2cc(Cl)ccc12)c1ccc(Cl)cc1 (centres undefined) was tested, and the GI50 was 3.84 µM and 4.19 µM and the TGI was 15.5 µM and 19 µM. CCOC(=O)CCCn1c(SC)nc2[nH]cc(-c3ccccc3)c2c1=O showed a GI50 of 17.1 µM and a TGI of over 100 µM. In the case of [Cl][Hg][c]1cc(Br)cc(Br)c1, the GI50 is reported as 2.77 µM and the TGI is reported as 10.6 µM. Work on CNC(=O)N(C)N=NCCCl yielded a TGI of over 100 µM. Molecule CCN1CCN(C(c2ccc(C(F)(F)F)cc2)c2ccc3cccnc3c2O)CC1 (centres undefined) has a GI50 of 5.56 µM and a TGI of 18.7 µM. Molecule COc1ccc(C(C)=O)cc1N1C(=O)C2C(C1=O)C1(c3ccccc3)C(=O)C2(c2ccccc2)C(c2ccc(C)cc2)=C1c1ccc(C)cc1 (centres undefined) has a GI50 of over 100 µM and a TGI of over 100 µM. O=C1c2cccc(NCCCNCCO)c2C(=O)c2cccc(NCCCNCCO)c21 was tested, and the TGI was 7.44 µM. CCN(CC)c1ccc2c(c1)OC(N)=C(C#N)C2c1cc(OC)c2c(c1)OCO2 (centres undefined) gave a GI50 of 0.0358 µM and a TGI of 0.428 µM. N#CC(=C1C=CC(=NO)C=C1)c1ccccc1 showed a GI50 of 1.58 µM and a TGI of 4.05 µM. CCCCCCCCCCCCCC1=NC(C)(C)CN1C(C)C was tested, and the GI50 was 1.7 µM and the TGI was 3.06 µM. COc1ccc(CN2C(=O)/C(=C\C(=O)c3ccc(OCCN4CCCCC4)cc3)c3ccccc32)cc1 was tested, and the GI50 was 3.35 µM and the TGI was 11.5 µM. Work on CCC(C)n1ncn(-c2ccc(N3CCN(c4ccc(OCC5COC(Cn6cncn6)(c6ccc(Cl)cc6Cl)O5)cc4)CC3)cc2)c1=O (centres undefined) yielded a GI50 of over 100 µM and a TGI of over 100 µM. CC(C)CCN1c2nc(Nc3cc(F)c(O)c(F)c3)ncc2N(C)C(=O)C1C (centres undefined) showed a GI50 of 6.41 µM and a TGI of 77.5 µM. O=C(CNc1ccc(Cl)cc1)Nc1ccc(-c2nc3ccccc3s2)cc1 was tested, and the GI50 was 3.49 µM and the TGI was 11.7 µM. Cc1nc2c(-c3cnc(N)nc3)nc(N3CCOCC3)nc2n1C(C)C gave a TGI of over 100 µM. For CCCCCCCCCCCCOC1C(C(COC2OC(C3COC(C)(C)O3)C3OC(C)(C)OC23)NC(=O)Nc2ccc(C(=O)O)cc2)OC2OC(C)(C)OC21 (centres undefined), the GI50 was 3.07 µM and the TGI was 9.79 µM. With CCN(CC)CCC(CNc1ccnc2cc(Cl)ccc12)c1ccc(OC)cc1 (centres undefined) the GI50 was 21.9 µM and 26.7 µM and the TGI was over 100 µM. With COc1ccc(/C=C(/C(=O)N2CCN(c3ccccc3)CC2)c2cc(OC)c(OC)c(OC)c2)cc1O the GI50 was 0.451 µM and the TGI was over 100 µM. For CCn1c(-c2nonc2N)nc2c(C#CC(C)(C)O)nc(OC[C@H](N)c3ccccc3)cc21, the GI50 was 3.26 µM and the TGI was 6.47 µM.

The molecules below were run on MDA-MB-231 breast (assay: inhibition of tumour cell growth, NCI panel, 48 h).
C=CCCCCC/C=C\[C@H](O)C#CC#C/C=C/CO showed a GI50 of 14.5 µM and a TGI of 33.8 µM. With O/N=C/C1C(OCc2ccccc2)C(OCc2ccccc2)C(OCc2ccccc2)CN1Cc1ccccc1 (centres undefined) the TGI was 93.7 µM. Work on O=C1NC(=O)C(c2cnc3ccccn23)=C1c1cn2c3c(cc(F)cc13)CN(C(=O)N1CCCCC1)CC2 yielded a GI50 of 11.4 µM and a TGI of 33.1 µM. Work on Clc1nc2ccccc2nc1CI yielded a GI50 of 3.14 µM and a TGI of 9.08 µM. In the case of Cn1nc(N)c2cc([C@@H]3Nc4ccc5[nH]ncc5c4[C@H]4C5CCC(C5)[C@@H]34)ccc21 (some centres undefined), the GI50 is reported as 2.31 µM and the TGI is reported as 16.8 µM. O=C(O)C1C2C=CC(O2)C1C(=O)NCc1ccccn1 (centres undefined) was tested, and the TGI was over 100 µM. For O=C(OC(CNc1cc(=O)n(Cc2ccccc2)c(=O)n1Cc1ccccc1)CN1CCCC1)c1ccccc1 (centres undefined), the GI50 was 75.3 µM and the TGI was over 100 µM. With CCN(CC)CCCC(CNc1ccnc2cc(Cl)ccc12)c1ccc(Cl)cc1 (centres undefined) the GI50 was 1.41 µM and 1.54 µM and the TGI was 3.21 µM and 3.32 µM. In the case of CCOC(=O)CCCn1c(SC)nc2[nH]cc(-c3ccccc3)c2c1=O, the GI50 is reported as 25.8 µM and the TGI is reported as 66.7 µM. [Cl][Hg][c]1cc(Br)cc(Br)c1 showed a GI50 of 1.79 µM and a TGI of 3.89 µM. CNC(=O)N(C)N=NCCCl showed a TGI of over 100 µM. CCN1CCN(C(c2ccc(C(F)(F)F)cc2)c2ccc3cccnc3c2O)CC1 (centres undefined) showed a GI50 of 2.97 µM and a TGI of 25.3 µM. For COc1ccc(C(C)=O)cc1N1C(=O)C2C(C1=O)C1(c3ccccc3)C(=O)C2(c2ccccc2)C(c2ccc(C)cc2)=C1c1ccc(C)cc1 (centres undefined), the GI50 was 33.1 µM and the TGI was over 100 µM. In the case of O=C1c2cccc(NCCCNCCO)c2C(=O)c2cccc(NCCCNCCO)c21, the TGI is reported as 3.37 µM.
